Test results reported in patent publication EP3132692A1, “Compositions comprising small molecular inhibitors suitable to inhibit and stimulate signaling pathways in a manner leading to prevention of muscle atrophy” (priority 2015, dated 2017).

Legend:
PDE4 isomer = conditions: cited from earlier work
PPARα = biological target: T1, PPARα (Homo sapiens, UniProt Q07869); conditions: cited from earlier work
T1 sequence (Q07869 1-468): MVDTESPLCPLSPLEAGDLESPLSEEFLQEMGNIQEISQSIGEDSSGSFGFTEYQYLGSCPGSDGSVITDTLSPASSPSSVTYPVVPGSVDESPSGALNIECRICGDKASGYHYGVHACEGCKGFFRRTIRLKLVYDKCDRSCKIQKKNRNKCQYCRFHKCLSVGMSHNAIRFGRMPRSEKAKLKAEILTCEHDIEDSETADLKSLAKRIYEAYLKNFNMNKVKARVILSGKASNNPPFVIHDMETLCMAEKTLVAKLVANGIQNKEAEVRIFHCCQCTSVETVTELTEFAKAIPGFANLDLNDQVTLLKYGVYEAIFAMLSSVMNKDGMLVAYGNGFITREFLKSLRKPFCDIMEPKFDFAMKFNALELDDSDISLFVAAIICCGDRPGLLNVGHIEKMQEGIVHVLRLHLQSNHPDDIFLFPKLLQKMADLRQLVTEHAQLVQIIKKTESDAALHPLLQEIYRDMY

TGFβ-II receptor = TGFβ-II receptor (Homo sapiens, UniProt P37173); conditions: 100µM; cited from earlier work
Sequence of TGFβ-II receptor (P37173 23-567): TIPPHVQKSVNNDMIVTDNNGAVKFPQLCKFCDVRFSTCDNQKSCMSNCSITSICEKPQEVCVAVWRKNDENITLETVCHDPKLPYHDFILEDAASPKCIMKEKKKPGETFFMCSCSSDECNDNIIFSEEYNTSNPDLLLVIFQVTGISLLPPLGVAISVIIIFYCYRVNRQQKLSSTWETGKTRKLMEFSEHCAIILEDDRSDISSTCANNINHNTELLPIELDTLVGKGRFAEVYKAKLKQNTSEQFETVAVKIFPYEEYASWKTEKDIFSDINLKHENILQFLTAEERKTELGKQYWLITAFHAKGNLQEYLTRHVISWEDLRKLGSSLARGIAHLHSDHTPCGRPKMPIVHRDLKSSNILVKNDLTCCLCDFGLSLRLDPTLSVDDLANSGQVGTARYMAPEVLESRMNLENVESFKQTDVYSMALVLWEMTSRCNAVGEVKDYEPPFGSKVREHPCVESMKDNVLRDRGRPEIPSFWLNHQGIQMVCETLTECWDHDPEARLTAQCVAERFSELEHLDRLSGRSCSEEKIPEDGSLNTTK

PPARγ = biological target: T2, PPARγ (Homo sapiens, UniProt P37231); conditions: cited from earlier work
T2 sequence (P37231 1-505): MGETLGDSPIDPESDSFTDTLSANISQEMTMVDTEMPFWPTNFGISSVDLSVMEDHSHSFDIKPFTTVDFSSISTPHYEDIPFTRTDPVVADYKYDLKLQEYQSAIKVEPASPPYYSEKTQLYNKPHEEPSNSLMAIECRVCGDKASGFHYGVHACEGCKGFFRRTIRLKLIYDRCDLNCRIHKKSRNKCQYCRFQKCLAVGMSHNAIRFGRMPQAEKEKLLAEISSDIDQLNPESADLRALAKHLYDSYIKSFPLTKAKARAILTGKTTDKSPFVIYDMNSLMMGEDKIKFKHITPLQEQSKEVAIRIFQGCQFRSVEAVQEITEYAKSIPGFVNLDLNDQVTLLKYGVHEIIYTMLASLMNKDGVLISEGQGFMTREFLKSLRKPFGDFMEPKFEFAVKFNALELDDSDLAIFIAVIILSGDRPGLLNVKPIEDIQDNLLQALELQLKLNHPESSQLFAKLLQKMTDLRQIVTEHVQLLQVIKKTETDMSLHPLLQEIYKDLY

C. Elegans = conditions: cited from earlier work
[1] = biological target: human DNA topoisomerase II (topo II); conditions: cited from earlier work
resistance trained men [2] = assay: Total creatine kinase as marker of muscle damage, efficacy study; type: in vivo
Procedure: In the efficacy study, 18 resistance trained men with at least 5 years of experience in weight lifting voluntarily participated. Participants were divided in 3 equal groups; receiving placebo (hypromellose, 2 times a day), (-)-epicatechin ((EPI), 2x 150 mg a day) and (-)-epicatechin combined with hesperetin and myricetin ((E+H+M), 2x 150+100+50 mg a day). Maximally trained individuals were chosen as further muscle gains in such groups are usually minimal, even with dietary interventions. This is primarily explained due to a fact that such trained individuals reached so called "natural genetic plateau" where muscle tissue works within physiological optimum defined by the genetic blueprints, so even radical interventions (except anabolic steroids) and exercise regime cannot bring significant results. This was confirmed by participants as they had no means to achieve particularly better results over last few years of exercise. All subjects were asked to maintain the same caloric intake during 12 week study 5 days a week exercise. […]
Body composition was examined at the beginning and the end of study using dual energy x-ray absorptiometry - DEXA scans (DiscoveryTM by Hologic). Total body estimates of fat and non-bone lean tissue were determined according to company supplied algorithms. […]

resistance trained men [3] = assay: Muscle thickness by B-mode ultrasound imaging, efficacy study; type: in vivo
Procedure: (§1) In the efficacy study, 18 resistance trained men with at least 5 years of experience in weight lifting voluntarily participated. Participants were divided in 3 equal groups; receiving placebo (hypromellose, 2 times a day), (-)-epicatechin ((EPI), 2x 150 mg a day) and (-)-epicatechin combined with hesperetin and myricetin ((E+H+M), 2x 150+100+50 mg a day). Maximally trained individuals were chosen as further muscle gains in such groups are usually minimal, even with dietary interventions. This is primarily explained due to a fact that such trained individuals reached so called "natural genetic plateau" where muscle tissue works within physiological optimum defined by the genetic blueprints, so even radical interventions (except anabolic steroids) and exercise regime cannot bring significant results. This was confirmed by participants as they had no means to achieve particularly better results over last few years of exercise. All subjects were asked to maintain the same caloric intake during 12 week study 5 days a week exercise. During 2 months study participants were taking 30 g of post exercise amino acid blend (whey, soy and casein protein) with following profile per 100 g: • Alanine 7.1g, arginine 9.2 g, aspartic acid 6.2 g, glutamic acid 21.5 g, glycine 12.2 g, histidine 1.1 g, isoleucine 6.9 g, leucine 11.1 g, methionine 0.3 g, phenylalanine 2.7 g, proline 11.2 g, serine 2.7 g, threonine 1.5 g, tyrosine 0.5 g and valine 5.8 g.
(§2) Body composition was examined at the beginning and the end of study using dual energy x-ray absorptiometry - DEXA scans (DiscoveryTM by Hologic). Total body estimates of fat and non-bone lean tissue were determined according to company supplied algorithms. Muscle thickness for Vastus lateralis and Triceps brachii lateralis was examined at the beginning and the end of study by B-mode ultrasound imaging (Toshiba PowerVision 8000) as the distance between the subcutaneous adipose tissue and inter-muscular belly interface. Total Cretine Kinase as a marker of muscle damage was performed by VITROS® 4600 (Ortho Clinical Diagnostics) at the beginning and the end of study.

aged men = conditions: treatment for 7 days; cited from earlier work
[4] = Body composition by dual energy x-ray absorptiometry (DEXA), efficacy study; type: in vivo, men
Procedure: as §1, §2

resistance trained men [5] = assay: Strength measures: 1-repetition maximum (1-RM) bench press and squat, efficacy study; type: in vivo
UGT enzymes = conditions: after absorption; cited from earlier work
myoblast C2C12 cells = conditions: 100µM; low mitogen medium; cited from earlier work
[6] = test system: mice subjected to freeze injury (tibialis); conditions: injections at 50mg/kg for six days; relative to control; cited from earlier work
[7] = via orange juice alongside 150 mL yogurt; cited from earlier work
[8] = BEGGINING of study, resistance trained men
[9] = END of 12 week study, EPI 2x 150 mg a day, E+H+M 2x 150+100+50 mg a day

Structure (SMILES): COc1ccc(C2CC(=O)c3c(O)cc(O)cc3O2)cc1O (stereo not shown) [hesperetin, 5,7,3'-trihydroxy-4'-methoxyflavanone]
- IC50 (PDE4 isomer): 28.2 ± 1.1 µM
- concentration range of concentration dependent stimulation of PPARα activity (PPARα): 20 to 160 µM
- ability of a ligand to associate with the TGFβ-II receptor (TGFβ-II receptor): approximately halve
- concentration range of concentration dependent stimulation of PPARγ activity (PPARγ): 20 to 160 µM

Structure (SMILES): O=c1c(O)c(-c2cc(O)c(O)c(O)c2)oc2cc(O)cc(O)c12 [myricetin]
- prolongation of average lifespan (C. Elegans; C. Elegans): 18%
- prolongation of maximal lifespan (C. Elegans; C. Elegans): 21.7%
- increase of average lifespan (C. Elegans; mev-1(kn1) mutants): 16%
- IC50 [1]: 27.5 µM

Structure (SMILES): Oc1cc(O)c2c(c1)O[C@H](c1ccc(O)c(O)c1)[C@H](O)C2 [EPI, (-)-epicatechin]
- Total Creatine Kinase (CK reff range: 38-120 ng/ml) (resistance trained men [2]; [8]): 86 ± 24 ng/mL
- Total Creatine Kinase (CK reff range: 38-120 ng/ml) (resistance trained men [2]; [9]): 73 ± 16 ng/mL
- Triceps Brachii Lateralis thickness (resistance trained men [3]; [8]): 30.8±4.4 mm
- Vastus Lateralis thickness (resistance trained men [3]; [8]): 23.8±3.9 mm
- Triceps Brachii Lateralis thickness (resistance trained men [3]; [9]): 33.8±2.2 mm
- Vastus Lateralis thickness (resistance trained men [3]; [9]): 24.6±2.9 mm
- hand grip strength (aged men): increases
- ratio of plasma follistatin/myostatin (aged men): increases
- Body fat [4, 8]: 11.2 ± 5.3 kg
- Body mass [4, 8]: 93.2 ± 14.6 kg
- Lean body mass [4, 8]: 76.4 ± 5.8 kg
- Body fat [4, 9]: 9.1 ± 4.2 kg
- Body mass [4, 9]: 93.8 ± 10.5 kg
- Lean body mass [4, 9]: 77.2 ± 5.8 kg
- 1- RM BENCH PRESS (resistance trained men [5]; [8]): 148±21
- 1-RM SQUAT (resistance trained men [5]; [8]): 153 ± 24 kg
- 1-RM SQUAT (resistance trained men [5]; [9]): 170 ± 22 kg

Structure (SMILES): COc1ccc(C2CC(=O)c3c(O)cc(OC4OC(COC5OC(C)C(O)C(O)C5O)C(O)C(O)C4O)cc3O2)cc1O (stereo not shown) [hesperidin, hesperetin-7-O-rutinoside]
- found as hesperetin monoglucuronide (UGT enzymes): up to 87%
- found as sulphoglucuronides (UGT enzymes): 13%
- myocyte differentiation (myoblast C2C12 cells): able to promote myocyte differentiation
- muscle regenerative capabilities [6]: significantly enhanced
- reduction of Cmax of the main metabolite (hesperitin-7-O-glucuronide) [7]: 29%
- reduction of overall exposure (AUC) of the main metabolite [7]: 27%
